{"source": "patent US7517905B2", "about": "“Substituted azabicyclo hexane derivatives as muscarinic receptor antagonists” (Ranbaxy Laboratories Limited, priority 2003, dated 2009)", "key": {"isolated rat bladder": {"system": "isolated rat bladder", "experiment": "Functional experiments using isolated rat bladder (carbachol concentration response curve)", "format": "cell-based", "conditions": "isolated rat bladder strips, carbachol-induced contraction, antagonist added 20 min before second CRC; for Kb: read-out: Functional Assay pKB (converted)", "description": "Animals were euthanized by overdose of urethane and whole bladder was isolated and removed rapidly and placed in cold Tyrode buffer with the following composition (mMol/L) sodium chloride 137; KCl 2.7, CaCl2 1.8, MgCl2 0.1; NaHCO3 11.9, NaH2PO4 0.4; Glucose 5.55 and continuously gassed with 95% O2 and 5% CO2\nThe bladder was cut into longitudinal strips (3 mm wide and 5-6 mm long) and mounted in 10 ml organ baths at 30° C., with one end connected to the base of the tissue holder and the other end connected to a polygraph through a force displacement transducer. Each tissue was maintained at a constant basal tension of 2 g and allowed to equilibrate for 1 hour during which the PSS was changed every 15 min. At the end of equilibration period, the stabilization of the tissue contractile response was assessed with 1 u mol/L of carbachol consecutively for 2-3 times. Subsequently, a cumulative concentration response curve to carbachol (10^−9 mol/L to 3×10^−5 mol/L) was obtained. After several washes, once the baseline was achieved, cumulative concentration response curve was obtained in the presence of NCE (NCE added 20 min. prior to the second CRC).\nThe contractile results were expressed as % of control E max ED50 values were calculated by fitting a non-linear regression curve (Graph Pad Prism). PKB values were calculated by the formula pKB=−log [(molar concentration of antagonist/(dose ratio-1))] where,\ndose ratio=ED50 in the presence of antagonist/ED50 in the absence of antagonist."}, "M3 muscarinic receptor": {"biological_target": "T1, M3 muscarinic receptor (Rattus norvegicus, UniProt P08483)", "T1 construct": "Submandibular glands and heart were isolated and placed in ice cold homogenizing buffer; from tissue; host or cells: rat submandibular gland membrane homogenate", "T1 sequence (P08483 whole entry)": "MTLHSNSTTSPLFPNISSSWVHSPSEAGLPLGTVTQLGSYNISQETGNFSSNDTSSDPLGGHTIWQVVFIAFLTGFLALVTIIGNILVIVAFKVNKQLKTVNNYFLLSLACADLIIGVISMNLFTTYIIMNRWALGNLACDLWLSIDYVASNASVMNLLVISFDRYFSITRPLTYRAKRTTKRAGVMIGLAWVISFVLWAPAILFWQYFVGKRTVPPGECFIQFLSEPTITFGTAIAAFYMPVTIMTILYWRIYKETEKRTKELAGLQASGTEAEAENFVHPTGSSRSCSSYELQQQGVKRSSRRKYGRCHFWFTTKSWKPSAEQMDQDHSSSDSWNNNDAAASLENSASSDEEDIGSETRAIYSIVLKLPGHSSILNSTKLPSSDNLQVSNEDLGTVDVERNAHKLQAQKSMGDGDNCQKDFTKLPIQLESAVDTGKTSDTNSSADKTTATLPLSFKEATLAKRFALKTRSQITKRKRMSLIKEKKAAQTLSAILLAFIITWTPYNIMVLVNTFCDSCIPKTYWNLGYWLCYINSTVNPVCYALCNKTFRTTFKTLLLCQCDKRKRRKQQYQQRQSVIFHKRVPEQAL", "experiment": "Radioligand binding assay, [3H]-N-methyl scopolamine, rat submandibular gland membranes", "conditions": "[3H]NMS displacement, Ki by Cheng & Prusoff; for Ki: read-out: Receptor Binding Assay M3 pKi (converted)", "description": "(§1) Membrane preparation: Submandibular glands and heart were isolated and placed in ice cold homogenizing buffer (HEPES 20 mM, 10 mM EDTA, and pH 7.4) immediately after sacrifice. The tissues were homogenized in 10 volumes of homogenizing buffer and the homogenate was filtered through two layers of wet gauze and filtrate was centrifuged at 500 g for 10 min. The supernatant was subsequently centrifuged at 40.000 g for 20 min. The pallet thus obtained was resuspended in same volume of assay buffer (HEPES 20 mM, EDTA 5 mM, pH 7.4) and were stored at −70° C. until the time of assay.\n(§2) Ligand binding assay: The compounds were dissolved and diluted in dimethylsulfoxide. The membrane homogenates (150-250 μg protein) were incubated in 250 ul of assay buffer HEPES 20 mM, pH 7.4) at 24-25° C. for 3 hour. Non-specific binding was determined in the presence of 1 μM atropine. The incubation was terminated by vacuum filtration over GF/B fiber filters (Wallac). The filters were then washed with ice-cold 50 mM Tris HCI buffer (pH 7.4). The filter mats were dried and bound radioactivity retained on filters was counted. The IC50 & Kd were estimated by using the non-linear curve-fitting program using G Pad Prism software."}, "M2 muscarinic receptor": {"biological_target": "T2, M2 muscarinic receptor (Rattus norvegicus, UniProt P10980)", "T2 construct": "Submandibular glands and heart were isolated and placed in ice cold homogenizing buffer; from tissue; host or cells: rat heart membrane homogenate", "T2 sequence (P10980 1-466)": "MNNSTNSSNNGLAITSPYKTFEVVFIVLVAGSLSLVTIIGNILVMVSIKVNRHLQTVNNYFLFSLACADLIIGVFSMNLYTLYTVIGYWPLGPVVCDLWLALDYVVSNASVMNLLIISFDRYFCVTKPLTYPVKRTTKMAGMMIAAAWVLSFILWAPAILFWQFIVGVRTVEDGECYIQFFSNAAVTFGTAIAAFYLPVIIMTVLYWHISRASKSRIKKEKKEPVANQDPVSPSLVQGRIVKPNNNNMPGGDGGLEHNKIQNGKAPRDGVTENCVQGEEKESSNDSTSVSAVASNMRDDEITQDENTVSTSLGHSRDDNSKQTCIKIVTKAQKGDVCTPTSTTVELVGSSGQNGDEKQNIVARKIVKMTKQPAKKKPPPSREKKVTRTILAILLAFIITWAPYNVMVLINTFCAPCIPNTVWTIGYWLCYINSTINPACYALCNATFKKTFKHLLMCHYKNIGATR", "experiment": "Radioligand binding assay, [3H]-N-methyl scopolamine, rat heart membranes", "conditions": "[3H]NMS displacement, Ki by Cheng & Prusoff; for Ki: read-out: Receptor Binding Assay M2 pKi (converted)", "description": "The affinity of test compounds for M2 and M3 muscarinic receptor subtypes was determined by [^3H]—N-methyl scopolamine binding studies using rat heart and submandibular gland, respectively as described by Moriya et al., (Life Sci, 1999, 64(25): 2351-2358).\nas §1\nas §2, with “software. The value of inhibition constant Ki was calculated from competitive binding studies by using Cheng & Prusoff equation (Biochem Pharmacol, 1973.22: 3099-3108), Ki=IC50/(1+L/Kd), where L is the concentration of [^3H]NMS used in the particular experiment. pKi=−log Ki Functional Experiments using Isolated Rat Bladder: Methodology: […]” for “software.”"}}, "data": [{"compound": "3-(2-methoxy-5-methylphenyl)-3-phenylpropanoic acid-4-[(3-azabicyclo[3.1.0]hex-6-yl]-ethoxy carbonylamino]butyl ester [Compound No. 5]", "values": [{"measurement": "Functional Assay pKB", "setting": "isolated rat bladder", "result": 5.15}, {"measurement": "Receptor Binding Assay M3 pKi", "setting": "M3 muscarinic receptor", "result": "<6"}, {"measurement": "Receptor Binding Assay M2 pKi", "setting": "M2 muscarinic receptor", "result": "<6"}]}, {"compound": "Cc1ccc(O)c(C(CCNC2C3CN(Cc4ccccc4)CC32)c2ccccc2)c1", "note": "(single isomer, unassigned) [Compound No. 16, (R or S)—N-(3-benzy-1-3-azabicyclo[3.1.0]hex-6-yl]-[3-(2-hydroxy-5-methylphenyl)-3-phenylpropyl]amine]", "values": [{"measurement": "Functional Assay pKB", "setting": "isolated rat bladder", "result": "7.25 ± 0.15"}]}, {"compound": "COc1ccc(C)cc1C(CC(=O)OCC(=O)NC1C2CN(Cc3ccccc3)CC21)c1ccccc1", "note": "(centres unmarked) [Compound No. 1, 3-(2-Methoxy-5-methylphenyl)-3-phenyl propanoic acid-(3-benzyl-3-azabicyclo[3.1.0]hexane-6-yl-carbamoyl)methyl ester]", "values": [{"measurement": "Kb", "setting": "isolated rat bladder", "result": 9.77, "unit": "µM"}, {"measurement": "Ki", "setting": "M3 muscarinic receptor", "result": "> 1", "unit": "µM"}, {"measurement": "Ki", "setting": "M2 muscarinic receptor", "result": "> 1", "unit": "µM"}]}, {"compound": "Cc1ccc(OCc2ccccc2)c(C(CC(=O)OCC(=O)NC2C3CN(Cc4ccccc4)CC32)c2ccccc2)c1", "note": "(centres unmarked) [Compound No. 2, 3-(2-benzyloxy-5-methylphenyl)-3-phenyl propanoic acid-(3-benzyl-3-azabicyclo[3.1.0]-hex-6-ylcarbamoyl)-methyl ester]", "values": [{"measurement": "Kb", "setting": "isolated rat bladder", "result": 6.76, "unit": "µM"}, {"measurement": "Ki", "setting": "M3 muscarinic receptor", "result": "> 1", "unit": "µM"}, {"measurement": "Ki", "setting": "M2 muscarinic receptor", "result": "> 1", "unit": "µM"}]}, {"compound": "Cc1ccc(O)c(C(CC(=O)NC2C3CNCC32)c2ccccc2)c1", "note": "(centres unmarked) [Compound No. 3, N-(3-azabicyclo[3.1.0]hex-6-yl)-3-(2-hydroxy-5-methylphenyl)-3-phenyl-1-propanoic acid]", "values": [{"measurement": "Functional Assay pKB", "setting": "isolated rat bladder", "result": 5.95}, {"measurement": "Receptor Binding Assay M3 pKi", "setting": "M3 muscarinic receptor", "result": "<6"}, {"measurement": "Receptor Binding Assay M2 pKi", "setting": "M2 muscarinic receptor", "result": "<6"}]}, {"compound": "COc1ccc(C)cc1C(CC(=O)NC1C2CNCC21)c1ccccc1", "note": "(centres unmarked) [Compound No. 4, N-(3-azabicyclo[3.1.0]hex-6-yl)-3-(2-methoxy-5-methylphenyl)-3-phenyl-1-propionamide]", "values": [{"measurement": "Functional Assay pKB", "setting": "isolated rat bladder", "result": 5.64}, {"measurement": "Receptor Binding Assay M3 pKi", "setting": "M3 muscarinic receptor", "result": "<6"}, {"measurement": "Receptor Binding Assay M2 pKi", "setting": "M2 muscarinic receptor", "result": "<6"}]}, {"compound": "Cc1ccc(O)c(C(CC(=O)OCCCCNOCCC2C3CNCC23)c2ccccc2)c1", "note": "(centres unmarked) [Compound No. 6, 3-(2-hydroxy-5-methylphenyl)-3-phenylpropionic acid 4-[(3-azabicyclo[3.1.0]hex-6-yl)ethoxyamino]butyl ester]", "values": [{"measurement": "Functional Assay pKB", "setting": "isolated rat bladder", "result": 5.84}, {"measurement": "Receptor Binding Assay M3 pKi", "setting": "M3 muscarinic receptor", "result": "<6"}, {"measurement": "Receptor Binding Assay M2 pKi", "setting": "M2 muscarinic receptor", "result": "<6"}]}, {"compound": "COc1ccc(C)cc1C(CC(=O)OCC(=O)NC1C2CNCC21)c1ccccc1", "note": "(centres unmarked) [Compound No. 7, 3-(2-methoxy-5-methylphenyl)-3-phenylpropionic acid-(3-azabicyclo[3.1.0]hex-6-ylcarbamoyl)methyl ester]", "values": [{"measurement": "Kb", "setting": "isolated rat bladder", "result": 2.51, "unit": "µM"}, {"measurement": "Ki", "setting": "M3 muscarinic receptor", "result": "> 1", "unit": "µM"}, {"measurement": "Ki", "setting": "M2 muscarinic receptor", "result": "> 1", "unit": "µM"}]}, {"compound": "Cc1ccc(O)c(C(CC(=O)OCC(=O)NC2C3CNCC32)c2ccccc2)c1", "note": "(centres unmarked) [Compound No. 8, 3-(2-hydroxy-5-methylphenyl)-3-phenylpropionic acid-(3-azabicyclo[3.1.0]hex-6-ylcarbamoyl)methyl ester]", "values": [{"measurement": "Functional Assay pKB", "setting": "isolated rat bladder", "result": "No blockade"}, {"measurement": "Ki", "setting": "M3 muscarinic receptor", "result": "> 1", "unit": "µM"}, {"measurement": "Ki", "setting": "M2 muscarinic receptor", "result": "> 1", "unit": "µM"}]}, {"compound": "Cc1ccc(O)c(C(CC(=O)NCC(=O)NC2C3CN(Cc4ccccc4)CC32)c2ccccc2)c1", "note": "(centres unmarked) [Compound No. 9, N-[(3-benzyl-3-azabicyclo[3.1.0]hex-6-ylcarbamoyl)-methyl]-3-(2-hydroxy-5-methylphenyl)-3-phenyl-propionamide]", "values": [{"measurement": "Kb", "setting": "isolated rat bladder", "result": 1.91, "unit": "µM"}, {"measurement": "Ki", "setting": "M3 muscarinic receptor", "result": "> 1", "unit": "µM"}, {"measurement": "Ki", "setting": "M2 muscarinic receptor", "result": "> 1", "unit": "µM"}]}, {"compound": "COc1ccc(C)cc1C(CC(=O)NCC(=O)N[C@H]1[C@@H]2CN(Cc3ccccc3)C[C@@H]21)c1ccccc1", "note": "(some centres unmarked) [Compound No. 10, N-[(3-benzyl-3-azabicyclo[3.1.0]hex-6-ylcarbamoyl]-methyl]-3(-2-methoxy-5-methylphenyl)-3-phenyl propionamide]", "values": [{"measurement": "Kb", "setting": "isolated rat bladder", "result": 1.95, "unit": "µM"}, {"measurement": "Ki", "setting": "M3 muscarinic receptor", "result": "> 1", "unit": "µM"}, {"measurement": "Ki", "setting": "M2 muscarinic receptor", "result": "> 1", "unit": "µM"}]}, {"compound": "Cc1ccc(O)c(C(CC(=O)N[C@H]2[C@@H]3CN(Cc4ccccc4)C[C@@H]32)c2ccccc2)c1", "note": "(some centres unmarked) [Compound No. 11, N-(3-benzyl-3-azabicyclo[3.1.0]hex-6-yl)-3-(2-hydroxy-5-methylphenyl)-3-phenyl propionamide]", "values": [{"measurement": "Kb", "setting": "isolated rat bladder", "result": 6.76, "unit": "µM"}, {"measurement": "Ki", "setting": "M3 muscarinic receptor", "result": "> 1", "unit": "µM"}, {"measurement": "Ki", "setting": "M2 muscarinic receptor", "result": "> 1", "unit": "µM"}]}, {"compound": "CCOC(=O)N(CCCCOC(=O)CC(c1ccccc1)c1cc(C)ccc1OC)C1C2CN(Cc3ccccc3)CC21", "note": "(centres unmarked) [Compound No. 12, 3-(2-methoxy-5-methylphenyl)-3-phenylpropionic acid-4-[(3-benzyl-3-azabicyclo[3.1.0]hex-6-yl)-ethoxycarbonylamino]butyl ester]", "values": [{"measurement": "Functional Assay pKB", "setting": "isolated rat bladder", "result": 6.72}, {"measurement": "Receptor Binding Assay M3 pKi", "setting": "M3 muscarinic receptor", "result": "<6"}, {"measurement": "Receptor Binding Assay M2 pKi", "setting": "M2 muscarinic receptor", "result": "<6"}]}, {"compound": "Cc1ccc(O)c([C@H](CCN(C(C)C)C(C)C)c2ccccc2)c1", "note": "[Tolterodine, reference compound]", "values": [{"measurement": "Kb", "setting": "isolated rat bladder", "result": 0.00138, "unit": "µM"}]}]}
